Source: patent US20230241211A1, “BISPECIFIC ANTIBODY AGAINST CD3 AND CD20 IN COMBINATION THERAPY FOR TREATING DIFFUSE LARGE B-CELL LYMPHOMA” (GENMAB A/S, priority 2022, published 2023)

Legend:
T cells = assay: T-cell activation with immobilized anti-CD3 in presence or absence of lenalidomide; format: cell-based; details: CD3 crosslinking with immobilized anti-CD3, lenalidomide 5 or 50 μM, 3 days; compared to no lenalidomide
Procedure: T cells were pre-incubated with assay medium or lenalidomide in the absence or presence of CD3 crosslinking by immobilized anti-CD3 for 3 days (as indicated on the x-axes), after which upregulation of CD69, CD25, PD-1 and LAMP-1 on CD4^+ and CD8^+ T cells was determined by flow cytometry. Data shown are geomean fluorescence intensities (FI) for four donors (each circle represents one condition for one donor). Pre-incubation conditions are shown on the x-axis.
(§1) Briefly, T cells were activated with immobilized anti-CD3 in the presence (5 or 50 μM) or absence of lenalidomide for 3 days. […] T cells that were activated in the presence or absence of lenalidomide were subsequently tested for their cytotoxic capacity in response to epcoritamab.

[1] = tested on: CD20-expressing Daudi cells; assay: Epcoritamab-induced T-cell-mediated cytotoxicity assay with lenalidomide-pretreated T cells; format: cell-based; details: T cells pre-treated with lenalidomide (5 or 50 μM) and anti-CD3 for 3 days, Daudi target cells, E:T ratio 2:1
Procedure: T cells were incubated with (5 or 50 μM) or without lenalidomide in the absence or presence of immobilized anti-CD3 for 3 days. […] Data shown are average percentages cytotoxicity ±SD of duplicates, normalized to medium control (no antibody, no lenalidomide).
as §1

[2] = tested on: relapsed or refractory (R/R) B-NHL; highly refractory large B-cell lymphoma; details: epcoritamab monotherapy, n=157, cited from earlier work
[3] = highly refractory large B-cell lymphoma

Compound | T-cell activation (upregulation of activation markers CD69, CD25 on the T cell surface, release of granzyme B and IFNγ) (T cells) | activity at lower epcoritamab concentrations [1] | maximum percent cytotoxicity ([1]; versus T cells without lenalidomide) | complete response (CR) rate [2, 3] [%] | median duration of response (DOR) [2, 3] [months] | overall response rate (ORR) [2, 3] [%] | safety profile [2]
Nc1cccc2c1CN(C1CCC(=O)NC1=O)C2=O (stereo not shown) [lenalidomide, 3-(4-Amino-1-oxo-1,3-dihydro-2H-isoindol-2-yl) piperidine-2,6-dione] | increased T-cell activation | – | – | – | – | – | –
epcoritamab: IgG1 bispecific CD3×CD20 antibody; heavy/light chain pairs SEQ ID NOs: 24/25 and 26/27; CAS 2134641-34-0 | – | higher activity at lower epcoritamab concentrations | Higher maximum percent cytotoxicity | 39 | 12 | 63 | manageable safety profile
